Reference: ChEMBL document CHEMBL4507263, “Data for DCP probe BAY-474” (2021)

What was measured:
[1] = target: 5-hydroxytryptamine receptor 2C (Homo sapiens, UniProt P28335); test: GPCRScan assay: inhibition of 5-HT2C; design: radioligand conc. used [nm] 1.0 – 2.5, parental cells HEK T
[2] = target: Tyrosine-protein kinase ABL2 (Homo sapiens) (UniProt P42684); conditions: Compound concentration 1000.0 nM
[3] = target: RAC-alpha serine/threonine-protein kinase (Homo sapiens) (UniProt P31749); conditions: Compound concentration 1000.0 nM
[4] = target: Cyclin-dependent kinase-like 1 (Homo sapiens) (UniProt Q00532); conditions: Compound concentration 1000.0 nM
[5] = target: Eukaryotic translation initiation factor 2-alpha kinase 1 (Homo sapiens) (UniProt Q9BQI3); conditions: Compound concentration 1000.0 nM
[6] = target: Inhibitor of nuclear factor kappa-B kinase subunit alpha (Homo sapiens) (UniProt O15111); conditions: Compound concentration 1000.0 nM
[7] = target: Mitogen-activated protein kinase 8 (Homo sapiens) (UniProt P45983); conditions: Compound concentration 1000.0 nM
[8] = target: Mitogen-activated protein kinase kinase kinase 15 (Homo sapiens) (UniProt Q6ZN16); conditions: Compound concentration 1000.0 nM
[9] = target: Mitogen-activated protein kinase kinase kinase kinase 4 (Homo sapiens) (UniProt O95819); conditions: Compound concentration 1000.0 nM
[10] = target: Microtubule-associated serine/threonine-protein kinase 1 (Homo sapiens) (UniProt Q9Y2H9); conditions: Compound concentration 1000.0 nM
[11] = target: Dual specificity mitogen-activated protein kinase kinase 1 (Homo sapiens) (UniProt Q02750); conditions: Compound concentration 1000.0 nM
[12] = target: MAP kinase-interacting serine/threonine-protein kinase 1 (Homo sapiens) (UniProt Q9BUB5); conditions: Compound concentration 1000.0 nM
[13] = target: Macrophage-stimulating protein receptor (Homo sapiens) (UniProt Q04912); conditions: Compound concentration 1000.0 nM
[14] = target: Myosin-IIIb (Homo sapiens) (UniProt Q8WXR4); conditions: Compound concentration 1000.0 nM
[15] = target: Serine/threonine-protein kinase Nek1 (Homo sapiens) (UniProt Q96PY6); conditions: Compound concentration 1000.0 nM
[16] = target: Serine/threonine-protein kinase NIM1 (Homo sapiens) (UniProt Q8IY84); conditions: Compound concentration 1000.0 nM
[17] = target: Mitogen-activated protein kinase 11 (Homo sapiens) (UniProt Q15759); conditions: Compound concentration 1000.0 nM
Sequence of Mitogen-activated protein kinase 11 (Homo sapiens) (Q15759 whole entry): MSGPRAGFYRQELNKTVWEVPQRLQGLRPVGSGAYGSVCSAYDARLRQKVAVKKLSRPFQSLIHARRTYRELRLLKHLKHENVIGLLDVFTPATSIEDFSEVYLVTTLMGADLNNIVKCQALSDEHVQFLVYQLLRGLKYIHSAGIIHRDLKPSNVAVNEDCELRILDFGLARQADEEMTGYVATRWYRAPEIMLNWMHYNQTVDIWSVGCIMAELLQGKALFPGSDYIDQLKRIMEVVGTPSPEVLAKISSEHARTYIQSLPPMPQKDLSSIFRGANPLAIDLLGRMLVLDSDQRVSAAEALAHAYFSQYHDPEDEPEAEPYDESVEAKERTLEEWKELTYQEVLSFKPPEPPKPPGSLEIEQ

[18] = target: Mitogen-activated protein kinase 12 (Homo sapiens) (UniProt P53778); conditions: Compound concentration 1000.0 nM
[19] = target: Calcium-dependent protein kinase 1 (Plasmodium falciparum) (UniProt P62344); conditions: Compound concentration 1000.0 nM
[20] = target: Phosphatidylinositol 4-phosphate 3-kinase C2 domain-containing subunit beta (Homo sapiens) (UniProt O00750); conditions: Compound concentration 1000.0 nM
[21] = target: Phosphatidylinositol 4,5-bisphosphate 3-kinase catalytic subunit alpha isoform (Homo sapiens) (UniProt P42336); conditions: Compound concentration 1000.0 nM
Sequence of Phosphatidylinositol 4,5-bisphosphate 3-kinase catalytic subunit alpha isoform (Homo sapiens) (P42336 whole entry, canonical isoform): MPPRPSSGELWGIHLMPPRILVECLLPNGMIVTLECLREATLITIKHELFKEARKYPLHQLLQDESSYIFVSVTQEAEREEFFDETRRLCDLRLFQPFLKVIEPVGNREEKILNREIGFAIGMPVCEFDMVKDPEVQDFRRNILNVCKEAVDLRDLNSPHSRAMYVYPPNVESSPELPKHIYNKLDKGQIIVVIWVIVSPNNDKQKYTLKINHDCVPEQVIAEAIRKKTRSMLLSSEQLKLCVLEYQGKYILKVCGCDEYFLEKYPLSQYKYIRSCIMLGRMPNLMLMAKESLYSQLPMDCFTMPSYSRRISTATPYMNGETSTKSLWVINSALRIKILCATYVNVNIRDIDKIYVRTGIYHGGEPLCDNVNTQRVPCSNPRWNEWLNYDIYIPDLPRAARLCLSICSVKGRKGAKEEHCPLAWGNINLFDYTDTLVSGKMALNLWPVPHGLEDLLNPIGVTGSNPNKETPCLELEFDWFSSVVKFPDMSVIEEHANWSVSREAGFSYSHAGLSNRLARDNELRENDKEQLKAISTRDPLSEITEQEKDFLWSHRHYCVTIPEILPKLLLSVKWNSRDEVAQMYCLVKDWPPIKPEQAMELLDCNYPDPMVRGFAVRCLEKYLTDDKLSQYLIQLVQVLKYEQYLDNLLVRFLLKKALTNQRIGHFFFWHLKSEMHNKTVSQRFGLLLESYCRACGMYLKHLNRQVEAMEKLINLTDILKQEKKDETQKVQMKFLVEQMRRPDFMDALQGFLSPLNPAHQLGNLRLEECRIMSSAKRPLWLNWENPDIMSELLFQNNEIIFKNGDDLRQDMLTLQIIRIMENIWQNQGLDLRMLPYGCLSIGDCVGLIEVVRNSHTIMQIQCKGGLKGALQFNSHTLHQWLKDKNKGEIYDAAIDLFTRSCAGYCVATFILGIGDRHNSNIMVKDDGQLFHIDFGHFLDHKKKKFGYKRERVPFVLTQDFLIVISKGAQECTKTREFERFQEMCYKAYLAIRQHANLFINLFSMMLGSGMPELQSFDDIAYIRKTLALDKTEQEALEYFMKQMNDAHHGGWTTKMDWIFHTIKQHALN

[22] = target: Interferon-induced, double-stranded RNA-activated protein kinase (Homo sapiens) (UniProt P19525); conditions: Compound concentration 1000.0 nM
[23] = target: Ribosomal protein S6 kinase alpha-1 (Homo sapiens) (UniProt Q15418); conditions: Compound concentration 1000.0 nM
[24] = target: Ribosomal protein S6 kinase beta-1 (Homo sapiens) (UniProt P23443); conditions: Compound concentration 1000.0 nM
Sequence of Ribosomal protein S6 kinase beta-1 (Homo sapiens) (P23443 whole entry, looked up): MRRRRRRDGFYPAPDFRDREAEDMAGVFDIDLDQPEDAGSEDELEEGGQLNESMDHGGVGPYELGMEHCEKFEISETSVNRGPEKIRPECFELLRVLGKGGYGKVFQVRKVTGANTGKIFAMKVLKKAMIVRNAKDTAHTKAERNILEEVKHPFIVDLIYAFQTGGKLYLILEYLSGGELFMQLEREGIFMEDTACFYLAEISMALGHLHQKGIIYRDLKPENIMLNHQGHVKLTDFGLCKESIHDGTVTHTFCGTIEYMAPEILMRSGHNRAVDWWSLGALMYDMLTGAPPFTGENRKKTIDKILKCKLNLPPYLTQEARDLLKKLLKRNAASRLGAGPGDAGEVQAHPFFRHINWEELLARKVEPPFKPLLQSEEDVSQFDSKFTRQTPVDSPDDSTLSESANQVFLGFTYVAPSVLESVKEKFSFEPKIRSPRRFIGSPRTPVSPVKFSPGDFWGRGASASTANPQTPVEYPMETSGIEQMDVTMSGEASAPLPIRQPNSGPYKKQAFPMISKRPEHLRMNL

[25] = target: Serine/threonine-protein kinase Sgk3 (Homo sapiens) (UniProt Q96BR1); conditions: Compound concentration 1000.0 nM
Sequence of Serine/threonine-protein kinase Sgk3 (Homo sapiens) (Q96BR1 whole entry): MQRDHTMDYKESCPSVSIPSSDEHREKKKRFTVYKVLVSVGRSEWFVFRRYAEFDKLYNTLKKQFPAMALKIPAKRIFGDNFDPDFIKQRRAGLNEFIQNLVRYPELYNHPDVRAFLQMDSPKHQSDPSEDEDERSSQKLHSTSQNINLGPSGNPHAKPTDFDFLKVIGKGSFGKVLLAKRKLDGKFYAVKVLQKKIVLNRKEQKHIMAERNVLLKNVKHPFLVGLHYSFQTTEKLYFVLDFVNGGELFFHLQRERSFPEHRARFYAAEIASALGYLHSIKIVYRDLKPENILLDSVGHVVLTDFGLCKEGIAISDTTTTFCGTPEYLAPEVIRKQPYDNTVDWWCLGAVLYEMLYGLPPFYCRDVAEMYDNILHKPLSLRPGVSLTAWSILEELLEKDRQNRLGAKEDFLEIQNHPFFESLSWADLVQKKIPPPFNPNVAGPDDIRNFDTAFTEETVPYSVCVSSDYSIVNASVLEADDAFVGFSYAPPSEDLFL

[26] = target: Serine/threonine-protein kinase TAO1 (Homo sapiens) (UniProt Q7L7X3); conditions: Compound concentration 1000.0 nM
[27] = target: Serine/threonine-protein kinase tousled-like 1 (Homo sapiens) (UniProt Q9UKI8); conditions: Compound concentration 1000.0 nM
[28] = target: Serine/threonine-protein kinase TNNI3K (Homo sapiens) (UniProt Q59H18); conditions: Compound concentration 1000.0 nM
[29] = target: Testis-specific serine/threonine-protein kinase 3 (Homo sapiens) (UniProt Q96PN8); conditions: Compound concentration 1000.0 nM
[30] = target: Tyrosine-protein kinase TXK (Homo sapiens) (UniProt P42681); conditions: Compound concentration 1000.0 nM
[31] = target: Serine/threonine-protein kinase 32A (Homo sapiens) (UniProt Q8WU08); conditions: Compound concentration 1000.0 nM
[32] = target: Calcium/calmodulin-dependent protein kinase type II subunit beta (Homo sapiens) (UniProt Q13554); test: CaMKIIbeta (h) Millipore kinase activity assay; conditions: Compound concentration 1.0 uM
[33] = target: Fibroblast growth factor receptor 4 (Homo sapiens) (UniProt P22455); test: FGFR4 (h) Millipore kinase activity assay; conditions: Compound concentration 1.0 uM
Sequence of Fibroblast growth factor receptor 4 (Homo sapiens) (P22455 22-802 limits assumed): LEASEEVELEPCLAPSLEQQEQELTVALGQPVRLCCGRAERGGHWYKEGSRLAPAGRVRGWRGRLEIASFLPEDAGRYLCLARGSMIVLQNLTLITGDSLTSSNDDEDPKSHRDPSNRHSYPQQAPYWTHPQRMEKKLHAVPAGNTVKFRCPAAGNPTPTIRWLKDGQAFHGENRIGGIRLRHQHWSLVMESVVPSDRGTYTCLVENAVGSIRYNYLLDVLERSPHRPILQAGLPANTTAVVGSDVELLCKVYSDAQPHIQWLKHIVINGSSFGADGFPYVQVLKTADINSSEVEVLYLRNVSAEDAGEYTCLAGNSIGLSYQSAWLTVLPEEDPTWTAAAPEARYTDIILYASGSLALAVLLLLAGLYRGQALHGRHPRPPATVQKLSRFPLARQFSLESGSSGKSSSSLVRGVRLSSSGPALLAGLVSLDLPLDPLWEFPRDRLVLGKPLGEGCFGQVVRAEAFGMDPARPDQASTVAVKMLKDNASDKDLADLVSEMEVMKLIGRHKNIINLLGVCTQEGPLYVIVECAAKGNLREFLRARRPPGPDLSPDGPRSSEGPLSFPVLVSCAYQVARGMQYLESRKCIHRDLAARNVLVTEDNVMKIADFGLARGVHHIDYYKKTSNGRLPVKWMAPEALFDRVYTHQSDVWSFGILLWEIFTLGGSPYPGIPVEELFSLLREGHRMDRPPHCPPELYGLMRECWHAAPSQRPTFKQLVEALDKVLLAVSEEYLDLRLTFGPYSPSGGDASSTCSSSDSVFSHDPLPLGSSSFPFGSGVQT

[34] = target: Tyrosine-protein kinase JAK3 (Homo sapiens) (UniProt P52333); test: JAK3 (h) Millipore kinase activity assay; conditions: Compound concentration 1.0 uM
[35] = target: Serine/threonine-protein kinase NLK (Homo sapiens) (UniProt Q9UBE8); test: NLK (h) Millipore kinase activity assay; conditions: Compound concentration 1.0 uM
[36] = target: Platelet-derived growth factor receptor alpha (Homo sapiens) (UniProt P16234); test: PDGFRalpha (h) Millipore kinase activity assay; conditions: Compound concentration 1.0 uM
Sequence of Platelet-derived growth factor receptor alpha (Homo sapiens) (P16234 whole entry): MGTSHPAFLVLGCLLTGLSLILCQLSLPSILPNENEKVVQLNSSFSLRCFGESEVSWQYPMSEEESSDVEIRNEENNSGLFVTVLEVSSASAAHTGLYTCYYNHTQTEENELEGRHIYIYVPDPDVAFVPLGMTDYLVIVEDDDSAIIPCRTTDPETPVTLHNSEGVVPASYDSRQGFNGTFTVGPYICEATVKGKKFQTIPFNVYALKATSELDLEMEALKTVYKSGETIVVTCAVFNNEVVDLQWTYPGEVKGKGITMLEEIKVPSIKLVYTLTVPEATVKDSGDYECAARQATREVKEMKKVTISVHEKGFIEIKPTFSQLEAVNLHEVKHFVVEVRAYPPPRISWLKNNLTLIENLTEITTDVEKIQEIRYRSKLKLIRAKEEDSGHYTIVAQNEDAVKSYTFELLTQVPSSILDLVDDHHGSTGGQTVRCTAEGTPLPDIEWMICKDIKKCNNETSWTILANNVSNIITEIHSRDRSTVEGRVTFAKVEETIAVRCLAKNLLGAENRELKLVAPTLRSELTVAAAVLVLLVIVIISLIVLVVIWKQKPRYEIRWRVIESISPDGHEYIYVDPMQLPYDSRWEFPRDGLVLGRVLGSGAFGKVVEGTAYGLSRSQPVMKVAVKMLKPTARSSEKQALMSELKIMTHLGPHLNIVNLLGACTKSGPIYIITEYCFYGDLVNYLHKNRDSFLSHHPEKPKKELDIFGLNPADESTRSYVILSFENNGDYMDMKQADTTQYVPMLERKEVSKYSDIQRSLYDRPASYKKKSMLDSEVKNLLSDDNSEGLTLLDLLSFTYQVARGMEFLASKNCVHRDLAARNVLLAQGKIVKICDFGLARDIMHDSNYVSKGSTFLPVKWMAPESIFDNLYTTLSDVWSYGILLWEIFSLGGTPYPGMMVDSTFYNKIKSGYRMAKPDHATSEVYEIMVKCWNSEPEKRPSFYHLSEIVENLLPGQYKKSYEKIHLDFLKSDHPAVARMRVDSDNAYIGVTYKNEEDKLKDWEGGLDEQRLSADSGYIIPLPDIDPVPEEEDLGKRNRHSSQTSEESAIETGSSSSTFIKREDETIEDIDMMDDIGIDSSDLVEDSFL

[37] = target: Protein kinase C delta type (Homo sapiens) (UniProt Q05655); test: PKCdelta (h) Millipore kinase activity assay; conditions: Compound concentration 1.0 uM
[38] = target: Mitogen-activated protein kinase 11 (Homo sapiens) (UniProt Q15759); test: SAPK2b (h) Millipore kinase activity assay; conditions: Compound concentration 1.0 uM
[39] = target: ATP-sensitive inward rectifier potassium channel 11 (Cricetulus griseus) (UniProt A0A3L7HHE1); test: Inhibition of Potassium Channel [KATP] at 10 µM in the Eurofins-Panlabs radioligand binding assay (Eurofins_assay_265600); conditions: Cricetinae; Compound concentration 10.0 uM
[40] = target: Kappa-type opioid receptor (Homo sapiens) (UniProt P41145); conditions: Compound concentration 10.0 uM
[41] = target: Histamine H3 receptor (Homo sapiens) (UniProt Q9Y5N1); conditions: Compound concentration 10.0 uM
[42] = target: Alpha-1A adrenergic receptor (Homo sapiens) (UniProt P35348); conditions: Compound concentration 10.0 uM
Sequence of Alpha-1A adrenergic receptor (Homo sapiens) (P35348 whole entry): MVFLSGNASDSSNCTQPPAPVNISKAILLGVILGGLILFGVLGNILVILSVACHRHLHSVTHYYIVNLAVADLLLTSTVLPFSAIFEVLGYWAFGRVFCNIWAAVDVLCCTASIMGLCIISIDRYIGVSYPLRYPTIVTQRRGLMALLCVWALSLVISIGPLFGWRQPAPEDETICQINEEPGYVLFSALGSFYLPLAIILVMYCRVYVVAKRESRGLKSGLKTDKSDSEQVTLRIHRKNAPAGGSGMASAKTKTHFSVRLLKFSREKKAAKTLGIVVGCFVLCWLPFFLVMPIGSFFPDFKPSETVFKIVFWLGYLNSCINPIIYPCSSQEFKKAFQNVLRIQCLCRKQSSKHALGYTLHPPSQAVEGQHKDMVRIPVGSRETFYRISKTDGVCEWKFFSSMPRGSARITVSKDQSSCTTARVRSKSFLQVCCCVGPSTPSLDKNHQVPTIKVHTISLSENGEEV

[43] = target: Estrogen receptor (Homo sapiens) (UniProt P03372); conditions: Compound concentration 10.0 uM
[44] = target: Mitogen-activated protein kinase kinase kinase kinase 2 (Homo sapiens) (UniProt Q12851); test: GCK (h) Millipore kinase activity assay; conditions: Compound concentration 1.0 uM

CC1=C(C#N)[C@@H](c2ccc3[nH]nc(C)c3c2)C(C#N)=C(c2ccc(Cl)cc2)N1 [BAY-827]
Ki [1]: 10 µM | residual activity [2]: 100% | residual activity [3]: 100% | residual activity [4]: 77.1% | residual activity [5]: 100% | residual activity [6]: 100% | residual activity [7]: 65.2% | residual activity [8]: 100% | residual activity [9]: 100% | residual activity [10]: 100% | residual activity [11]: 100% | residual activity [12]: 100% | residual activity [13]: 70.2% | residual activity [14]: 78% | residual activity [15]: 100% | residual activity [16]: 100% | residual activity [17]: 99.8% | residual activity [18]: 58.6% | residual activity [19]: 100% | residual activity [20]: 100% | residual activity [21]: 100% | residual activity [22]: 74.1% | residual activity [23]: 91.2% | residual activity [24]: 62.2% | residual activity [25]: 84.5% | residual activity [26]: 100% | residual activity [27]: 100% | residual activity [28]: 94.3% | residual activity [29]: 100% | residual activity [30]: 88.1% | residual activity [31]: 100%

CC1=C(C#N)C(c2ccc3[nH]nc(C)c3c2)C(C#N)=C(C)N1 [BAY-474]
inhibition [32]: 4% | inhibition [33]: 18% | inhibition [34]: -7% | inhibition [35]: -4% | inhibition [36]: -2% | inhibition [37]: 2% | inhibition [38]: -10% | inhibition [39]: 9% | inhibition [40]: 8.26% | inhibition [41]: -3.35% | inhibition [42]: 15.6% | inhibition [43]: 2% | inhibition [44]: 1%
